Results reported in patent US7344850B2, “Identification of active-site inhibitors of glycosyltransferases using a generalizable high-throughput screen” (Princeton University, priority 2003, dated 2008).
Read-outs that look alike come from different tables or passages of the source.

Experiments:
[1] = target: T1, MurG (Escherichia coli, UniProt P17443); conditions: biotin-capture assay, C10-Lipid I acceptor; cited from earlier work
[2] = target: T1, MurG; assay: fluorescence polarization displacement assay with labeled donor F1; format: binding, E. coli; conditions: for Signal change at 25 μM (drop in fluorescence polarization): 25 μM competitor; for Kd: read-out: Dissociation constants
[3] = target: GtfB (Amycolatopsis orientalis, UniProt P96559); assay: biochemical
Procedure: Inhibitors, dissolved in DMSO, were added at the indicated concentrations to 20 μL reactions containing 50 nM GtfB, 2 mM UDP-glucose, 75 mM Tricine (pH 9), 4 mM TCEP and 600 μM vancomycin aglycone. For consistency, all reactions contained 5% DMSO. Reactions were incubated at 37° C. for 1.5 hr, then quenched with 20 μL cold methanol and centrifuged at 13,000 rpm for 10 min. Reaction mixtures were resolved by analytical HPLC, using a gradient of 0-45% acetonitrile in water/0.1% TFA over 15 min, at a flow rate of 1 mL per minute. Product formation was monitored by UV absorbance at 285 nm.

[4] = target: PBP1b (Escherichia coli, UniProt P02919); assay: Assays for transglycosylase PBP1b; format: biochemical
Procedure: The protein was purified as described. Chen, L., Men, H., Ha, S., Ye, X.-Y., Brunner, L., Hu, Y., Walker, S. Biochemistry 2002; Tetrahedron 58, 6585 (2002). Assays were carried out by separately incubating varying amounts of ^14C-GlcNAc-labeled C35 Lipid II (specific activity=273 cpm/pmol) and inhibitors in eppendorf tubes containing 9 μL of buffer (50 mM HEPES at pH 7.5, 10 mM CaCl2, 1000 U/mL penicillin G, 0.2 mM decyl PEG, and 11% DMSO), and 1 μL PBP1b (from a solution freshly prepared by diluting the 50% glycerol stock 20-fold into 5 mM Tris buffer, pH 8.0, containing 8 mM decyl PEG) for 10 min. Reactions were started by adding 1 μL of the above PBP1b mixture to the substrate solution, and were typically stopped after 15 min by adding 10 μL ice cold 10 mM Tris (pH 8.0) containing 0.2% Triton X-100. Reactions were left on ice until spotted on cellulose chromatography paper (3M Whatman chromatography paper). Products and starting material were separated following the works of Anderson et al. using chromatography (isobutyric acid: 1N NH4OH=5:3) and quantitated by scintillation counting. Biochemistry 53, 881 (1965).

[5] = target: T2, OGT (Homo sapiens, UniProt O15294); assay: Assay for OGT; format: biochemical
T2 construct: His tag; made in house; host or cells: E. coli BL21 (DE3) (Novagen)
T2 sequence (O15294 51-920 isoform O15294-2 limits assumed): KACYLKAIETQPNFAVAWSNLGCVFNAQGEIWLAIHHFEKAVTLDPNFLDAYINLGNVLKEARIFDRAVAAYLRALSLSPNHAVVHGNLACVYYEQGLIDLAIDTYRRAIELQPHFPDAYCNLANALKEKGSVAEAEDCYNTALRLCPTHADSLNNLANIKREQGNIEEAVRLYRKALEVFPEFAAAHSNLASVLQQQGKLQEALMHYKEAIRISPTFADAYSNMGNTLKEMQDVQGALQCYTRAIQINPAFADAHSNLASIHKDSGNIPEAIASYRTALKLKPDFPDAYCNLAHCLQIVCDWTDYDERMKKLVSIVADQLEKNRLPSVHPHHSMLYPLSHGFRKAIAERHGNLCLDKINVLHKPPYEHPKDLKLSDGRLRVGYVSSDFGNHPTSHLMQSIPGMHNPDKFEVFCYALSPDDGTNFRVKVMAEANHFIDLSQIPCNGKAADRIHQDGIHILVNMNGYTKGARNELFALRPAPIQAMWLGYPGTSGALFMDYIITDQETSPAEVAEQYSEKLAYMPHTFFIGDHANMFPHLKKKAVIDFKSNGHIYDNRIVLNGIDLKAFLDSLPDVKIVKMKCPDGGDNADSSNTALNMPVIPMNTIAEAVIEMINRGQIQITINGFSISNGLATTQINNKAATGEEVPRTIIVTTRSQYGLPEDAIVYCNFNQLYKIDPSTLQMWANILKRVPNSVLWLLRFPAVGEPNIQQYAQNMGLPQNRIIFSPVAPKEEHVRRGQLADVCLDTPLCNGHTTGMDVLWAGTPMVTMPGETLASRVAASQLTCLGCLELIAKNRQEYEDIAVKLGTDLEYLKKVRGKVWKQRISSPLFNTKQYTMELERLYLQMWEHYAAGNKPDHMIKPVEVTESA
Procedure: The mitochondrial splice variant of OGT, minus the first 50 amino acids, was cloned into pET 32b, and expressed from Novagen BL21 (DE3) cells. The pellet was lysed with B-PER (Pierce) and rLysozyme (Novagen) and the soluble fraction was purified using His-Bind Resin (Novagen). Assay reaction buffer was 10 mM Tris pH 7.4 with 100 μg/mL BSA. […] Inhibitors tested were added in 0.5 μL of DMSO and the final reaction volume was 20 μL. The reactions were quenched after 50 min at room temperature with 10 μL of formic acid and spotted onto phosphocellulose (Whatman P81) paper disks. The disks were washed for 3×5 min with 1% phosphoric acid, 1 min with acetone and dried before counting. The samples were measured by liquid scintillation counting.

[6] = target: T1, MurG; assay: radiometric kinetic assay (incorporation of 14C-GlcNAc into Lipid II), secondary screen and IC50; format: biochemical, E. coli; conditions: for inhibition pattern with respect to UDP-GlcNAc: kinetic analysis

Sequence of GtfB (P96559 whole entry): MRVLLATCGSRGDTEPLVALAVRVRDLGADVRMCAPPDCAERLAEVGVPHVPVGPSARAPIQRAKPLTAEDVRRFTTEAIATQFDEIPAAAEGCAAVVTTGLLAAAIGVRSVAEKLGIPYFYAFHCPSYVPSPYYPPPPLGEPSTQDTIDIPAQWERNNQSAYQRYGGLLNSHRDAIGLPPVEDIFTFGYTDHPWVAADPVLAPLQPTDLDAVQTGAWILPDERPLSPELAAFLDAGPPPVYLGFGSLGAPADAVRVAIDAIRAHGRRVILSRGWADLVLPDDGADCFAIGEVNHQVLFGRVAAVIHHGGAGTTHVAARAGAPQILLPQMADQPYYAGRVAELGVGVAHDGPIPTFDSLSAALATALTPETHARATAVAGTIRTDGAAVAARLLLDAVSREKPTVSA
Sequence of PBP1b (P02919 whole entry): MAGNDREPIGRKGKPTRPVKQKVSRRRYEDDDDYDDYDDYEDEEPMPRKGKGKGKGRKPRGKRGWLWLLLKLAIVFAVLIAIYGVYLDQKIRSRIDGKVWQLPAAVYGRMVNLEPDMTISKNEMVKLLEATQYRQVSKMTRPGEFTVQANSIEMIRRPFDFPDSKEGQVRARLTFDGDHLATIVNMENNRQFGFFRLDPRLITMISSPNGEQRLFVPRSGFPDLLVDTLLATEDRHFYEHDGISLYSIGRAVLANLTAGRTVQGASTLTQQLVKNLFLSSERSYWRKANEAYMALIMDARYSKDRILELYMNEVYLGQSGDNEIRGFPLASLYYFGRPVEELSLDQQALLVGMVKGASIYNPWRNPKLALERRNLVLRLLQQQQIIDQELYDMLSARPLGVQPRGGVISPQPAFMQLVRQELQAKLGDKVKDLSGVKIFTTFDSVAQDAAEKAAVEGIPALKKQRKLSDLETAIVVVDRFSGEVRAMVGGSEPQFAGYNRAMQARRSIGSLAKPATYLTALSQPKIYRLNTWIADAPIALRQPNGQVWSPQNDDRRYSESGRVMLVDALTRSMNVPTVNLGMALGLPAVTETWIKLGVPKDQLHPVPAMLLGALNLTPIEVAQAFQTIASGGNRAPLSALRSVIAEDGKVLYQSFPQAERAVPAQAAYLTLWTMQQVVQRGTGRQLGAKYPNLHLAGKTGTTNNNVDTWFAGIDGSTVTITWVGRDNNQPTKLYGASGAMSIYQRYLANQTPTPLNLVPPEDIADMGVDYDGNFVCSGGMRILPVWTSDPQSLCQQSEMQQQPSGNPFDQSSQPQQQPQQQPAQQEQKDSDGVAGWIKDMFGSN
T1 sequence (P17443 whole entry): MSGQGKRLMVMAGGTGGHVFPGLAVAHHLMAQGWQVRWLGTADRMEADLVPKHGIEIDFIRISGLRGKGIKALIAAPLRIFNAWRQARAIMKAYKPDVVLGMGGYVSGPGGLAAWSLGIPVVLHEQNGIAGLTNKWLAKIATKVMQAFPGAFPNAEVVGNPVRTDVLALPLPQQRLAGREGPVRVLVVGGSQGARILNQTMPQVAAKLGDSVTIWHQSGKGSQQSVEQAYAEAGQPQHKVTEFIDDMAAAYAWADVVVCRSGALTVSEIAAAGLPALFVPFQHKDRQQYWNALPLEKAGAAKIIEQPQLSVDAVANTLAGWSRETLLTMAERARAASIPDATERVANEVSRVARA

| Structure (SMILES) | IC50 [1] [µM] | Signal change at 25 μM (drop in fluorescence polarization) [2] [%] | Kd ([2]; displacement of F1 from MurG) [µM] | IC50 [3] [µM] | IC50 ([4]; read-out: IC50 PBP1b) [µM] | IC50 ([5]; read-out: IC50 OGT) [µM] | IC50 [6] [µM] | other results |
| --- | --- | --- | --- | --- | --- | --- | --- | --- |
| Nc1ncnc2c1ncn2[C@@H]1O[C@H](COP(=O)(O)OP(=O)(O)O)[C@@H](O)[C@H]1O [ADP] | 1260 ± 300 | <10 | 88.2 ± 26.9 |  |  |  |  |  |
| CC1CCN(CN2C(=O)/C(=C\c3ccc(C(C)(C)C)cc3)SC2=S)CC1 [Compound 1, 5-(4-tert-Butyl-benzylidene)-3-(4-methyl-piperidin-1-ylmethyl)-2-thioxo-thiazolidin-4-one] |  |  |  | 15 | > 100 | > 100 | 1.4 | inhibition pattern with respect to UDP-GlcNAc [6]: competitive inhibitors |
| O=C(O)CN1C(=O)/C(=C\c2cc(Cl)cc(Br)c2O)SC1=S [Compound 2] |  |  |  | 4 | > 100 | > 100 | 3.4 |  |
| O=C1/C(=C2/C(=O)N(Cc3ccccc3)c3ccc(Br)cc32)SC(=S)N1CCS(=O)(=O)O [Compound 3] |  |  |  | 15 | > 100 | > 100 | 3.5 |  |
| O=C1NC(=O)N(c2ccc(Cl)cc2)C(=O)/C1=C/c1ccc(Br)o1 [Compound 4] |  |  |  | 11 |  |  | 6.4 | IC50 [4]: > 100 µM; IC50 [5]: > 100 µM |
| Cc1cc(/C=C2\C(=O)NC(=S)N(c3cccc(Cl)c3)C2=O)c(C)n1-c1cc(C(=O)O)cc(C(=O)O)c1 [Compound 5] |  |  |  | 50 |  |  | 1.4 | IC50 [4]: > 100 µM; IC50 [5]: > 100 µM; inhibition pattern with respect to UDP-GlcNAc [6]: competitive inhibitors |
| CC(C)(C)c1ccc(OCCOc2cccc(C=C3C(=O)NC(=S)NC3=O)c2)cc1 [Compound 6] |  |  |  | 100 |  |  | 4 | IC50 [4]: > 100 µM; IC50 [5]: > 100 µM |
| O=C(O)c1ccc(N2C(=O)/C(=C/c3ccc(-c4ccc(Br)cc4)o3)C=C2c2ccccc2)cc1 [Compound 7] |  |  |  | 100 | > 100 | > 100 | 5.4 | inhibition pattern with respect to UDP-GlcNAc [6]: competitive inhibitors |
| O=c1ccn([C@@H]2O[C@H](COP(=O)(O)OP(=O)(O)O)[C@@H](O)[C@H]2O)c(=O)[nH]1 [UDP, uridine diphosphate] | 65 ± 1 | 50 |  |  |  |  |  | polarization reading relative to wells containing only MurG and labeled donor ([2]; 25 μM UDP control well): approximately 50%; Kd [2]: 2.6 ± 0.2 µM; inhibition at 5 µM ([6]; read-out: inhibition of MurG reaction (drop in product formation)): 50% |
| CC(=O)N[C@H]1[C@@H](OP(=O)(O)OP(=O)(O)OC[C@H]2O[C@@H](n3ccc(=O)[nH]c3=O)[C@H](O)[C@@H]2O)O[C@H](CO)[C@H](O)[C@@H]1O [UDP-GalNAc] | > 1000 | 10 | 73.1 ± 14.1 |  |  |  |  |  |
| CC(=O)N[C@H]1[C@@H](OP(=O)(O)OP(=O)(O)OC[C@H]2O[C@@H](n3ccc(=O)[nH]c3=O)[C@H](O)[C@@H]2O)O[C@H](CO)[C@@H](O)[C@@H]1O [UDP-GlcNAc, UDP-N-acetylglucosamine] |  |  | 1.8 ± 0.2 |  |  |  |  |  |
| O=c1ccn([C@@H]2O[C@H](COP(=O)(O)O)[C@@H](O)[C@H]2O)c(=O)[nH]1 [UMP] | 600 ± 50 | <10 | 99.6 ± 12.2 |  |  |  |  |  |
